Reference: publication PMC11729550, “Discovery of indole analogue Tc3 as a potent pyroptosis inducer and identification of its combination strategy against hepatic carcinoma” (Theranostics, 2025)
Like-named read-outs stand apart in the source and are kept apart here.

How the values were obtained:
[1] = test system: HepG2 cells; assay: Anti-tumor activity assay (IC50 value), cells counted after three days; details: for IC50: read-out: IC50 HepG2; for fold increase in cellular potency: HepG2, compared to T1;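 for all read-outs here: HepG2 cells exposed to a drug concentration series for 3 days, then counted with a hemocytometer, inhibition relative to untreated control cell number, IC50 obtained by curve fitting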
Procedure: For half maximal inhibitory concentrations (IC50) analysis, the hepatic carcinoma cells (HepG2, SK-Hep1 and PLC-PRF5) were seeded in 24-well plates respectively, then treated with drugs at concentration gradient for three days. The cells were counted with hemocytometer. […] A is the cell quantity of the control group and B is the cell quantity of the drug treated group. The cell inhibition rate was transformed using its logarithm. And the drug IC50 value were calculated by Graphpad Prsim 9 software with curve fitting of the drug concentration and log (cell inhibition rate).

[2] = test system: SK-Hep1 cells; assay: as above; details: read-out: IC50 SK-Hep1
[3] = test system: PLC-PRF5 cells; assay: as above; type: cell-based; details: Homo sapiens, PLC-PRF-5, 72 h
Source text: The cells were counted with hemocytometer.

[4] = test system: GSDME; assay: Western blot of GSDME activation; type: cell-based, human; details: HepG2 and SK-Hep1 cells
Procedure: The whole-cell protein was extracted by RIPA lysis buffer contained with protease and phosphatase inhibitor cocktail (MCE, HY-K0010) from cells treated by indole analogues. Proteins were separated by sodium dodecyl sulfate-polyacrylamide gel electrophoresis (SDS-PAGE) gel, and then blotted onto polyvinylidene difluoride membrane (Millipore, IPVH00010). The membranes were incubated with the primary antibodies and the following horseradish peroxidase-conjugated (HRP) secondary antibodies. Next, membranes were washed and developed by ECL regent (Millipore, WBKLS0500).

[5] = test system: HepG2 and SK-Hep1 cells; assay: LDH release assay; type: cell-based, human; details: 0-4 μM, three days
Procedure: The hepatic carcinoma cells were seeded in 96-well plates and treated with indole analogues for three days. Of note, the compounds were added into DMEM medium supplemented with 1% FBS. The cellular supernatant was collected for LDH release detection by using LDH cytotoxicity assay kit (Beyotime, C0016). Statistical analysis was combined with the cell viability data tested by WST-1 cell proliferation and cytotoxicity assay kit (Beyotime, C0035).

[6] = Liver microsome metabolic stability assay; details: microsomes
Procedure: The reaction media contained liver microsomes (0.5 mg/mL), 1.0 mM β-nicotinamide adenine dinucleotide phosphate (β-NADPH), 3 mM MgCl2 phosphate buffer. Microsomal suspensions were pre-incubated with Tc3 for 3 min at 37℃. The reaction was initiated with the addition of β-NADPH and samples were collected at 0, 5, 15, 30 and 60 min. The negative control was excluded of β-NADPH. Midazolam was incubated similarly as a positive control substrate. At each time point, an aliquot was mixed acetonitrile. Samples were centrifuged and then supernatant was mixed with ultrapure water for LC-MS/MS analysis.

## CC(C)[C@H](N)C(=O)NCCCn1cc(/C=C2\S/C(=N\c3ccccc3)N(Cc3ccc(F)cc3)C2=O)c2ccccc21 [Tc6]
[1]; Homo sapiens, HepG2, 72 h
  IC50: > 100 µM

## COc1ccc2c(c1)c(/C=C1\SC(=O)N(Cc3ccc(F)cc3)C1=O)cn2CCCNC(=O)[C@@H]1CCCN1 [Tb9]
[1]; Homo sapiens, HepG2, 72 h
  IC50: 7.47 µM

## CNC(=O)c1cc(Oc2ccc(NC(=O)Nc3ccc(Cl)c(C(F)(F)F)c3)c(F)c2)ccn1 [Regorafenib, reference compound]
[1]; Homo sapiens, HepG2, 72 h
  IC50: 4.21 ± 0.33 µM
[2]; Homo sapiens, SK-HEP1, 72 h
  IC50: 4.23 ± 0.64 µM

## COc1cc2nccc(Oc3ccc(NC(=O)NC4CC4)c(Cl)c3)c2cc1C(N)=O [Lenvatinib, reference compound]
[1]; Homo sapiens, HepG2, 72 h
  IC50: 19.8 ± 1.43 µM
[2]; Homo sapiens, SK-HEP1, 72 h
  IC50: 12.4 ± 1.32 µM

## CSCC[C@H](N)C(=O)NCCCn1cc(/C=C2\S/C(=N\c3ccc(N4CCOCC4)cc3)N(Cc3ccc(F)cc3)C2=O)c2ccccc21 [Tc2]
[1]
  fold increase in cellular potency: ~2 fold
[1]; Homo sapiens, HepG2, 72 h
  IC50: 8.77 µM

## CC(C)[C@H](N)C(=O)NCCCn1cc(/C=C2\S/C(=N\c3ccc(F)cc3)N(Cc3ccc(F)cc3)C2=O)c2ccccc21 [Tc7]
[1]; Homo sapiens, HepG2, 72 h
  IC50: 12.4 µM

## CC(C)[C@H](N)C(=O)NCCCn1cc(/C=C2\SC(=O)N(Cc3ccc(F)cc3)C2=O)c2ccccc21 [Tb2]
[1]; Homo sapiens, HepG2, 72 h
  IC50: 6.74 ± 0.8 µM

## CSCC[C@H](N)C(=O)NCCCn1cc(/C=C2\SC(=O)N(Cc3ccc(F)cc3)C2=O)c2cc(Br)ccc21 [Tb6]
[1]; Homo sapiens, HepG2, 72 h
  IC50: 6.31 ± 0.35 µM

## CC(C)CCC(=O)NCCCn1cc(/C=C2\SC(=O)N(Cc3ccc(F)cc3)C2=O)c2ccccc21 [Ta4]
[1]; Homo sapiens, HepG2, 72 h
  IC50: > 100 µM

## COc1ccc(/N=C2\S/C(=C\c3cn(CCCNC(=O)[C@@H](N)C(C)C)c4ccccc34)C(=O)N2Cc2ccc(F)cc2)cc1 [Tc10]
[1]; Homo sapiens, HepG2, 72 h
  IC50: > 100 µM

## O=C(NCCCn1cc(/C=C2\S/C(=N\c3ccc(N4CCOCC4)cc3)N(Cc3ccc(F)cc3)C2=O)c2ccccc21)[C@@H]1CCCN1 [Tc4]
[1]
  fold increase in cellular potency: ~6.5 fold
[1]; Homo sapiens, HepG2, 72 h
  IC50: 2.46 µM
[3]
  IC50: 2.92 ± 0.32 µM
[2]; Homo sapiens, SK-HEP1, 72 h
  IC50: 2.3 ± 0.14 µM
[4]
  GSDME activation / cleavage (western blotting): did not activate GSDME
[5]
  LDH release levels: increased

## CC(C)[C@H](N)C(=O)NCCCn1cc(/C=C2\S/C(=N\c3ccc(Cl)cc3)N(Cc3ccc(F)cc3)C2=O)c2ccccc21 [Tc8]
[1]; Homo sapiens, HepG2, 72 h
  IC50: 15.2 µM

## N[C@@H](Cc1ccc(O)cc1)C(=O)NCCCn1cc(/C=C2\SC(=O)N(Cc3ccc(F)cc3)C2=O)c2cc(Br)ccc21 [Tb5]
[1]; Homo sapiens, HepG2, 72 h
  IC50: 11.3 µM

## NCCCn1cc(/C=C2\SC(=O)N(Cc3ccc(F)cc3)C2=O)c2ccccc21 [Compound T1]
[1]; Homo sapiens, HepG2, 72 h
  IC50: 15.9 µM

## CC(C)C(=O)NCCCn1cc(/C=C2\SC(=O)N(Cc3ccc(F)cc3)C2=O)c2ccccc21 [Ta3]
[1]; Homo sapiens, HepG2, 72 h
  IC50: > 50 µM

## CC(C)[C@H](N)C(=O)NCCCn1cc(/C=C2\S/C(=N\c3ccc(C(F)(F)F)cc3)N(Cc3ccc(F)cc3)C2=O)c2ccccc21 [Tc9]
[1]; Homo sapiens, HepG2, 72 h
  IC50: 10.8 µM

## CCCCCCCC(=O)NCCCn1cc(/C=C2\SC(=O)N(Cc3ccc(F)cc3)C2=O)c2ccccc21 [Ta5]
[1]; Homo sapiens, HepG2, 72 h
  IC50: > 100 µM

## C[C@H](N)C(=O)NCCCn1cc(/C=C2\SC(=O)N(Cc3ccc(F)cc3)C2=O)c2ccccc21 [Tb1]
[1]; Homo sapiens, HepG2, 72 h
  IC50: 7.97 ± 0.3 µM

## COc1ccc2c(c1)c(/C=C1\SC(=O)N(Cc3ccc(F)cc3)C1=O)cn2CCCNC(=O)[C@@H](N)Cc1ccc(O)cc1 [Tb8]
[1]; Homo sapiens, HepG2, 72 h
  IC50: 6.92 ± 1.21 µM

## CC(C)[C@H](N)C(=O)NCCCn1cc(/C=C2\S/C(=N/C3CCCCC3)N(Cc3ccc(F)cc3)C2=O)c2ccccc21 [Tc11]
[1]; Homo sapiens, HepG2, 72 h
  IC50: 20.9 µM

## CC[C@H](C)[C@H](N)C(=O)NCCCn1cc(/C=C2\SC(=O)N(Cc3ccc(F)cc3)C2=O)c2cc(Br)ccc21 [Tb7]
[1]
  fold increase in cellular potency: ~9 fold
[1]; Homo sapiens, HepG2, 72 h
  IC50: 1.79 µM
[3]
  IC50: 1.26 ± 0.31 µM
[2]; Homo sapiens, SK-HEP1, 72 h
  IC50: 2.21 ± 0.17 µM
[4]
  GSDME activation / cleavage (western blotting): did not activate GSDME
[5]
  LDH release levels: increased

## O=C(NCCCn1cc(/C=C2\SC(=O)N(Cc3ccc(F)cc3)C2=O)c2cc(Br)ccc21)[C@@H]1CCCN1 [Tb4]
[1]; Homo sapiens, HepG2, 72 h
  IC50: 9.23 µM

## CCCC/N=C1\S/C(=C\c2cn(CCCNC(=O)[C@@H](N)C(C)C)c3ccccc23)C(=O)N1Cc1ccc(F)cc1 [Tc12]
[1]; Homo sapiens, HepG2, 72 h
  IC50: 25 µM

## COc1cc2nccc(Oc3ccc(NC(=O)C4(C(=O)Nc5ccc(F)cc5)CC4)cc3)c2cc1OC [Cabozantinib, reference compound]
[1]; Homo sapiens, HepG2, 72 h
  IC50: 2.64 ± 0.85 µM
[2]; Homo sapiens, SK-HEP1, 72 h
  IC50: 2.26 ± 0.32 µM

## O=C(NCCCn1cc(/C=C2\SC(=O)N(Cc3ccc(F)cc3)C2=O)c2ccccc21)C1CCCC1 [Ta1]
[1]; Homo sapiens, HepG2, 72 h
  IC50: 27.7 µM

## NCCCn1cc(/C=C2\S/C(=N\c3ccc(N4CCOCC4)cc3)N(Cc3ccc(F)cc3)C2=O)c2ccccc21 [Tc1]
[1]
  fold increase in cellular potency: ~ 3 fold
[1]; Homo sapiens, HepG2, 72 h
  IC50: 5.13 µM
[3]
  IC50: 2.71 ± 0.12 µM
[2]; Homo sapiens, SK-HEP1, 72 h
  IC50: 2.87 ± 0.61 µM
[4]
  GSDME activation / cleavage (western blotting): did not activate GSDME
[5]
  LDH release levels: increased

## O=C(NCCCn1cc(/C=C2\SC(=O)N(Cc3ccc(F)cc3)C2=O)c2ccccc21)[C@@H]1CCCN1 [Tb3]
[1]; Homo sapiens, HepG2, 72 h
  IC50: 6.2 µM

## CC[C@H](C)[C@H](N)C(=O)NCCCn1cc(/C=C2\S/C(=N\c3ccc(N4CCOCC4)cc3)N(Cc3ccc(F)cc3)C2=O)c2ccccc21 [Tc5]
[1]
  fold increase in cellular potency: ~ 3 fold
[1]; Homo sapiens, HepG2, 72 h
  IC50: 4.9 µM

## CNC(=O)c1cc(Oc2ccc(NC(=O)Nc3ccc(Cl)c(C(F)(F)F)c3)cc2)ccn1 [Sorafenib, reference compound]
[1]; 72 h
  IC50: 6.06 µM
[2]; 72 h
  IC50: 4.4 µM

## Cc1ncc2n1-c1ccc(Cl)cc1C(c1ccccc1F)=NC2 [midazolam, reference compound]
[6]; human
  microsomal CLint at 1 μM: 1200 µL/min/mg
[6]; mouse
  half-life at 1 μM: 2.72 min
  microsomal CLint at 1 μM: 1270 µL/min/mg

## Nc1ccn([C@@H]2O[C@H](CO)[C@@H](O)C2(F)F)c(=O)n1 [Gemcitabine, reference compound]
[1]; Homo sapiens, HepG2, 72 h
  IC50: 0.14 ± 0.01 µM
[2]; Homo sapiens, SK-HEP1, 72 h
  IC50: 0.04 ± 0.003 µM
